# Measurements: patent US20030138773A1, “METHODS OF TRANSCRIPTIONALLY MODULATING GENE EXPRESSION” (priority 1989, published 2003)
# Assays:
# [1] = system: human growth hormone promoter; assay: hGH promoter-luciferase reporter, cell clone 532 (high-throughput screen); type: cell-based; conditions: 100 nM; FIG. 42
# From the text: A rat pituitary cell line, designated GC, (4, 25) was used for transfection of plasmids containing the human growth hormone promoter (see below) and was maintained in DMEM and Ham's F12 medium (1:1), supplemented with 12.5% FCS. For HTP screening, transfected GC clones were transferred to serum free defined medium consisting of DMEM and Ham's F12 medium (1:1) supplemented with growth factors, hormones and nutrients as described previously (17, 5).
# The SalI-XhoI fragment of pSVLuci (FIG. 2) containing the luciferase coding sequences and the SV40 late polyadenylation site was inserted into pUC 8 (Biorad, Richmond, Calif.), which had been linearized by a SmaI/HinCII digestion and ligated to XhoI linkers (New England Biolabs, Beverly, Mass.). […]
# (§1) To assay for luciferase expression in transient expression assays in the various transfected clones, cells were incubated with various transcriptional inducers in serum free defined media, washed 3 times with Dulbecco's phosphate-buffered saline (D-PBS, Gibco) and lysed in Lysis Buffer 1 (50 mM Tris acetate pH 7.9, 1 mM EGTA, 10 mM magnesium acetate, 1 mg/ml bovine serum albumin [BSA], 0.5% Brij 58, 2 mM ATP, 100 mM dithiothreitol [DTT]). […] Samples were counted individually in an LKB (Gaithersburg, Md.) scintillation counter on a setting which allows measurement of individual photons by switching off the coincidence circuit. […]
# [2] = system: G-CSF mRNA; assay: Northern blot of endogenous G-CSF mRNA in 5637 cells; type: cell-based, human; conditions: G-CSF-specific probe, compared to solvent DMSO, FIG. 46
# Method: Total cellular RNA was isolated from the G21 cell clone or from untransfected 5637 cells following incubation for 6 hours with various transcriptionally modulating chemicals identified in the high-throughput screen. Cells were grown in serum free medium as described above. Total cellular RNA was isolated using the RNAZol method (CINNA/BIOTECX, Friendswood, Tex., Laboratories International, Inc.). Cells were resuspended and lysed with RNAZol solution (1.5 ml/9 cm petri dish) and the RNA was solubilized by passing the lysate a few times through a pipette. Chloroform was added to the homogenate (0.1 ml/1 ml), and samples were shaken for 15 seconds followed by a 5 minute incubation on ice. After centrifuging for 10 minutes, the upper phase was collected and an equal volume of isopropanol was added. Samples were incubated for 45 minutes at −20° C., and the RNA was pelleted for 15 minutes at 12,000×g at 4° C. The RNA pellet was then washed with 70% ethanol and dried briefly under vacuum.
# Total cellular RNA was isolated from 5637 cells following incubation with chemicals as described above and electrophoresed in a 1% Agarose-1M Formaldehyde gel. […] Bands were excised and counted in a liquid scintillation counter (LKB, Gaithersburg, Md.), and counts obtained with the G-CSF specific probe were normalized relative to the counts obtained with the B-Actin specific probe.
# [3] = system: mouse mammary tumor virus (MMTV) promoter; assay: MMTV promoter-luciferase reporter, cell clone M10 (high-throughput screen); type: cell-based; conditions: for stimulation of the MMTV promoter in cell clone M10 by steroids: FIG. 43
# From the text: NIH/3T3 fibroblast cells (ATCC number CRL 1658) were used for transfection of plasmids containing the mouse mammary tumor virus (MMTV) promoter linked to firefly luciferase coding sequences (see below). Cells were propagated in Dulbecco's modified Eagle's medium (DMEM) obtained from Gibco, Grand Island, N.Y. and supplemented with 10% FCS. For high-throughput (HTP) screening, transfected NIH/3T3 clones were transferred to serum free defined medium consisting of Iscove's modified Eagle's medium (IMEM) and Ham's F12 medium (1:1) supplemented with growth factors, hormones and nutrients as described previously (43).
# The firefly luciferase gene was removed from the plant expression plasmid pDO432 (33) (FIG. 1) as a 1.9 kb BamHI fragment and cloned into the BamHI site of pSVL (Pharmacia, Piscataway, N.J.), a mammalian expression vector containing the SV40 promoter. The resulting plasmid (pSVLuci; FIG. 2) was digested with XhoI and SalI to produce a 2.4 kb fragment containing the luciferase coding sequences and the SV40 late polyadenylation site. This fragment was inserted into the XhoI site of pMSG (Pharmacia, Piscataway, N.J.), a eukaryotic expression vector containing the MMTV promoter. The resulting MMTV promoter-luciferase fusion plasmid (pMLuci; FIG. 3) was used to transfect NIH/3T3 cells as described below (section El). Similar constructs can be made using luciferase vectors from Clontech (Palo Alto, Calif.).
# pMluci (FIG. 3) and pSV2Neo, an antibiotic resistance plasmid (34), were co-transfected into NIH/3T3 mouse fibroblast cells using the calcium phosphate precipitation method (15) with a commercially available kit (Pharmacia, Piscataway N.J.). […] Once sufficient cell numbers were obtained, clones were analyzed based on several criteria: constitutive luciferase production, induction of luciferase expression by dexamethasone (1 μM, Sigma, St. Louis, Mo.), satisfactory attachment to microtiter plates used in the high-throughput screen (see section G) and acceptable standard deviation in multiple luciferase expression assays (see below for assay protocol). […]
# [4] = system: human G-CSF promoter; assay: G-CSF promoter-luciferase reporter, cell clone G21 (high-throughput screen); type: cell-based; conditions: 5 μg/ml; FIG. 42
# From the text: A human bladder carcinoma cell line (U5637, ATCC number HTB 9) was used for transfection of plasmids containing the human Granulocyte-Colony Stimulating Factor (G-CSF) promoter (see below) and was maintained in RPMI medium supplemented with 10% FCS. For HTP screening, transfected 5637 clones were transferred to a serum free defined medium identical to that used for the NIH/3T3 clones.
# The sequences of OL-1, OL-2 and OL-5 recognize the G-CSF promoter region, OL-4 recognizes the first intron/exon junction and OL-3 recognizes sequences within the second exon (32). […]
# as §1
compound,measurement,setting,value
"rat growth hormone releasing factor: known inducer of hGH expression (Bachem) (HADAIFTSSYRRILGQLYARKLLHEIMNRQQGERNQEQRSRFN; Somatoliberin; UniProt P09916 31-73, looked up)","stimulation of luciferase expression, clone 532",[1],2.2 fold
IFN-gamma: a proteinaceous positive regulator,production of endogenous G-CSF mRNA,[2],increased
CC(=O)[C@H]1CC[C@H]2[C@@H]3CCC4=CC(=O)CC[C@]4(C)[C@H]3CC[C@]12C [progesterone],stimulation of the MMTV promoter in cell clone M10 by steroids,[3],did not
lipopolysaccharide,"stimulation of luciferase expression, clone G21",[4],5.7 fold
C[C@@H]1C[C@H]2[C@@H]3CCC4=CC(=O)C=C[C@]4(C)[C@@]3(F)[C@@H](O)C[C@]2(C)[C@@]1(O)C(=O)CO [dexamethasone],"stimulation of luciferase expression, clone M10","[3]; 1 μM, FIG. 42",11.6 fold
C[C@]12CCC(=O)C=C1CC[C@@H]1[C@@H]2[C@@H](O)C[C@]2(C=O)[C@@H](C(=O)CO)CC[C@@H]12 [aldosterone],stimulation of the MMTV promoter in cell clone M10 by steroids,[3],stimulates
